No end group written: not given here.
Assays:
[1] = Peptide precipitation / solubility under assay conditions; type: physicochemical
[2] = system: NTRs (IMP⍺1/2/3/5/7 and IMPβ1/2/3); assay: Fluorescence polarization; type: binding, human; mouse (IMP⍺2); conditions: FP; poor peptide solubility
[3] = biological target: human importin beta 1 (hIMPβ1) (human, UniProt Q14974 1-876); assay: fluorescence polarisation
Sequence of human importin beta 1 (hIMPβ1) (Q14974 whole entry): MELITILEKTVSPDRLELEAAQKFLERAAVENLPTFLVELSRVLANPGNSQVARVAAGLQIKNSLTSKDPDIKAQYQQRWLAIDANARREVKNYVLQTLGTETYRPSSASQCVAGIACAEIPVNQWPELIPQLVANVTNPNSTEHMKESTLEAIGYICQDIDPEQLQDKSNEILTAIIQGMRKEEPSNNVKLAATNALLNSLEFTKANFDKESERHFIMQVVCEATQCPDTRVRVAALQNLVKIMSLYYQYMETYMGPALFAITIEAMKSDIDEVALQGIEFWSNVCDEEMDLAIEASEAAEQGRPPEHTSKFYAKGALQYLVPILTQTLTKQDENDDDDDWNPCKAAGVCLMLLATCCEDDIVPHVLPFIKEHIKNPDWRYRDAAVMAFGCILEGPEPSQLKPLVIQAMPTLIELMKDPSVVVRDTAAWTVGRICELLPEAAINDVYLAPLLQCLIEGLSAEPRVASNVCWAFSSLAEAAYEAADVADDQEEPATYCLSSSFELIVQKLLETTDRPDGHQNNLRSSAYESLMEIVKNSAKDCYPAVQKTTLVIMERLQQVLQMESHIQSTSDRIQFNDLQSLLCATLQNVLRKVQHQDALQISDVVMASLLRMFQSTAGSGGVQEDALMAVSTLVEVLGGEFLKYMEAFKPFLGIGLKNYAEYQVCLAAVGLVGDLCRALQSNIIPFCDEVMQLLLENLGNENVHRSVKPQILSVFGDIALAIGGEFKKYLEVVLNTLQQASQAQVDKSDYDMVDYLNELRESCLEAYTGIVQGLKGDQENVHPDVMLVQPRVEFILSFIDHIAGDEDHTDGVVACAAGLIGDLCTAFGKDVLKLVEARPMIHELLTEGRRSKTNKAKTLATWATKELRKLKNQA

For “27-RRWRRRPRRRRRPYRRRPYRRYGRRRKVRRR-57 [ORF1 NLSn]”, the precipitation ([1]; EMSA conditions, 10 μM FITC-peptide, TB buffer) was “consistently precipitated, suggesting poor solubility under assay conditions”, the “solubility (in words)” value ([1]; FP conditions, 10 nM FITC-peptide, SEC buffer pH 8) was “poor peptide solubility” and the “interaction with NTRs (in words)” value [2] was “no interaction could be detected”.

YGRRRKVRRR (also: FITC-tagged, end not given here) [ORF1 NLSn_B peptide (TTDoV ORF1 residues 48-57, predicted monopartite cNLS)]: binds [3].
